These results are taken from PMC8954733, “Microbial Transformation and Biological Activities of the Prenylated Aromatic Compounds from Broussonetia kazinoki” (Molecules, 2022).

Read-outs that look alike come from different tables or passages of the source. A value given as a limit tells only on which side of the number the result lay.

The subject of series [1] is B16F10 (mouse melanoma) cell line. As to the kind of experiment: MTT cytotoxicity assay, B16F10. The following applies: 24 h treatment, mean ± SD, read-out: Cytotoxic effect IC50, cell line B16F10. It counts as cell-based. As to the method: (§1) To evaluate the anticancer potential of compounds 1–11, an MTT assay was used to determine the cell viability of human melanoma (A375P) and murine melanoma (B16F10 and B16F1) cell lines following a 24 h treatment with compounds 1–11.
(§2) The cytotoxic activities of all the compounds (1–11) were evaluated using the MTT assay. Briefly, the A375P (human melanoma), B16F10 and B16F1 (mouse melanoma) cell lines obtained from the Korean Cell Line Bank (Seoul, Korea) were cultured in Dulbecco’s Modified Eagle’s Medium (DMEM) (Gibco, CA, USA) containing penicillin (100 units/mL)-streptomycin (100 µg/mL) (Gibco, CA, USA) and 5% heat-inactivated fetal bovine serum (FBS) (Welgene, Korea) in a humidified chamber with 5% CO2 at 37 °C. The cells were seeded in 96-well plates at a density of 6 × 10^3 cells/well and incubated for 24 h. The medium was then aspirated and replaced with 100 μL of fresh medium containing various concentrations of the test compound. After incubation for a further 24 h, the compound containing the medium was replaced with 100 μL of a MTT solution (0.5 mg/mL) and incubated for 4 h. Then the insoluble formazan crystals were dissolved in 100 µL of DMSO and measured at 490 nm on a microplate reader.
(Tetrazolium dyes change colour on reduction, which living cells bring about.)

Series [2] concerns the target mushroom tyrosinase. As to the kind of experiment: Mushroom tyrosinase inhibition (L-tyrosine substrate, dopachrome absorbance at 490 nm). Type of series: biochemical. The following applies: L-tyrosine as substrate, 30 min at 37 °C, mean ± SD, read-out: Anti-Tyrosinase IC50. As to the method: All the compounds were investigated for their tyrosinase inhibitory effects using L-tyrosine as the substrate. […] All the compounds were first dissolved in dimethyl sulfoxide (DMSO) and then diluted into different concentrations (1, 2, 4, 10, 40, 80, and 160 µM). An amount of 100 µL of each sample solution and 50 µL of the 2 mM L-tyrosine solution in 0.1 M phosphate buffer (pH 6.5) were added to 96-well microplates. After incubation at room temperature for 5 min, 50 µL of mushroom tyrosinase (300 U/mL in phosphate buffer) was added to each well. After further incubation for 30 min under 37 °C, the absorbance of dopachrome produced in the mixture was determined at 490 nm with a microplate reader (SpectraMax 190; Molecular Devices, Sunnyvale, CA, USA). The percent of inhibition of tyrosinase activity was calculated using the formula: % inhibition = (A − B)/A × 100, in which A is the absorbance at 490 nm without the test sample, and B is the absorbance at 490 nm with the test sample. IC50 values were calculated from the mean values of data from four determinations.

Series [3] deals with A375P (human melanoma) cell line. As to the kind of experiment: MTT cytotoxicity assay, A375P. It counts as cell-based. The following applies: 24 h treatment, mean ± SD, read-out: Cytotoxic effect IC50, cell line A375P. As to the method: as §1, §2
Series [4] concerns B16F1 (mouse melanoma) cell line. As to the kind of experiment: MTT cytotoxicity assay, B16F1. Type of series: cell-based. The following applies: 24 h treatment, mean ± SD, read-out: Cytotoxic effect IC50, cell line B16F1. Here is the method:
as §1, §2

Consider `C=CC(C)(C)c1cc(CCCc2cc(O)c(O)c(CC=C(C)C)c2CC=C(C)C)c(O)cc1O` [Compound 1, Kazinol C], for which the IC50 is 26 ± 0.33 µM in series [1] (Mus musculus, B16-F10, 24 h); greater than 80 µM in series [2]; 12.1 ± 0.24 µM in series [3] (Homo sapiens, A375P, 24 h); 17.6 ± 0.33 µM in series [4] (Mus musculus, B16-F1, 24 h).

As to `C=CC(C)(C)c1cc2c(cc1O)O[C@H](c1cc(O)c(O)c(CC=C(C)C)c1CC=C(C)C)CC2` [Compound 2, Kazinol E], the concentration for half-maximal inhibition (IC50) in series [1] (Mus musculus, B16-F10, 24 h) was 12.1 ± 0.87 µM; in series [2], greater than 80 µM; in series [3] (Homo sapiens, A375P, 24 h), 11.5 ± 0.24 µM; in series [4] (Mus musculus, B16-F1, 24 h) it was 13.3 ± 0.22 µM.

In the case of `CC(C)=CCc1c(CCCc2ccc(O)cc2O)cc(O)c(O)c1CC=C(C)C` [Compound 3, Kazinol F], the IC50 in series [1] (Mus musculus, B16-F10, 24 h) was 19.9 ± 0.73 µM; in series [2], 2.12 ± 0.21 µM; in series [3] (Homo sapiens, A375P, 24 h) it was 18.16 ± 0.09 µM; in series [4] (Mus musculus, B16-F1, 24 h), 13.8 ± 0.88 µM.

`CC(C)=CCc1c([C@H]2Oc3cc(O)cc(O)c3C(=O)[C@@H]2O)cc(O)c(O)c1CC=C(C)C` [Compound 4, (2R,3R)-3,5,7,3′,4′-pentahydroxy-5′,6′-diprenylflavanonol]: the IC50 in series [1] (Mus musculus, B16-F10, 24 h) was 27.8 ± 0.63 µM; in series [2] it was 24.1 ± 0.3 µM; in series [3] (Homo sapiens, A375P, 24 h), 13.8 ± 1 µM; in series [4] (Mus musculus, B16-F1, 24 h), 24.4 ± 1.82 µM.

As to `C=CC(C)(C)c1cc(CCCc2cc(O)c3c(c2CC=C(C)C)C[C@H](C(C)(C)OC)O3)c(O)cc1O` [Compound 5, 5′-(2-methylbut-3-en-2-yl)-6″-(3-methylbut-2-enyl)-4″,5″-[(R)-2-(1-methoxy-1-methylethyl)]-dihydrofuranyl-2′,4′,3″-trihydroxydiphenylpropane], the IC50 in series [1] (Mus musculus, B16-F10, 24 h) was 43.2 ± 0.71 µM; in series [2], greater than 80 µM; in series [3] (Homo sapiens, A375P, 24 h), 45.9 ± 0.65 µM; in series [4] (Mus musculus, B16-F1, 24 h), 17.3 ± 0.22 µM.

Turning to `O=c1[nH]cc(F)c(=O)[nH]1` [Compound 5-FU, 5-FU, reference compound], the IC50 in series [1] was 4.61 ± 0.16 µM; in series [3], 13.1 ± 1.55 µM; in series [4], 12.8 ± 0.16 µM.

With `C=CC(C)(C)c1cc(CCCc2cc(O[C@@H]3O[C@H](CO)[C@@H](O)[C@H](O)[C@H]3O)c(O)c(CC=C(C)C)c2CC=C(C)C)c(O)cc1O` [Compound 6, Kazinol C-3″-O-β-D-glucopyranoside], the IC50 was greater than 80 µM in series [1] (Mus musculus, B16-F10, 24 h); greater than 80 µM in series [2]; greater than 80 µM in series [3] (Homo sapiens, A375P, 24 h); greater than 80 µM in series [4] (Mus musculus, B16-F1, 24 h).

Regarding `C=CC(C)(C)c1cc(CCCc2cc(O[C@@H]3O[C@H](CO)[C@@H](O)[C@H](O)[C@H]3O)c(O)c(CC=C(C)C)c2CC=C(C)C)c(O[C@@H]2O[C@H](CO)[C@@H](O)[C@H](O)[C@H]2O)cc1O` [Compound 7, kazinol C-2′,3″-di-O-β-D-glucopyranoside], the IC50 in series [1] is 24.2 ± 1.26 µM; in series [1] (Mus musculus, B16-F10, 24 h), 17.8 to 24.2 µM; in series [2], greater than 80 µM; in series [3] it was 23.6 ± 0.52 µM; in series [3] (Homo sapiens, A375P, 24 h), 17.8 to 24.2 µM; in series [4], 17.8 ± 1.65 µM. For the same compound, the IC50 in series [4] (Mus musculus, B16-F1, 24 h) fell in the range of 17.8 to 24.2 µM.

Turning to `C=CC(C)(C)c1cc(CCCc2cc(O)c(O[C@@H]3O[C@H](CO)[C@@H](O)[C@H](O)[C@H]3O)c(CC=C(C)C)c2CC=C(C)C)c(O)cc1O` [Compound 8, Kazinol C-4″-O-β-D-glucopyranoside], the IC50 in series [1] (Mus musculus, B16-F10, 24 h) is greater than 80 µM; in series [2], greater than 80 µM; in series [3] (Homo sapiens, A375P, 24 h), greater than 80 µM; in series [4] (Mus musculus, B16-F1, 24 h), greater than 80 µM.

`C=CC(C)(C)c1cc(CCCc2cc(O[C@@H]3O[C@H](CO)[C@@H](O)[C@H](O)[C@H]3O)c(O[C@@H]3O[C@H](CO)[C@@H](O)[C@H](O)[C@H]3O)c(CC=C(C)C)c2CC=C(C)C)c(O)cc1O` [Compound 9, kazinol C-3″,4″-di-O-β-D-glucopyranoside]: the IC50 is greater than 80 µM in series [1] (Mus musculus, B16-F10, 24 h); greater than 80 µM in series [2]; greater than 80 µM in series [3] (Homo sapiens, A375P, 24 h); greater than 80 µM in series [4] (Mus musculus, B16-F1, 24 h).

Consider `CC(C)=CCc1c(CCCc2ccc(O)cc2O)cc(O)c(O[C@@H]2O[C@H](CO)[C@@H](O)[C@H](O)[C@H]2O)c1CC=C(C)C` [Compound 11, Kazinol F-4″-O-β-D-glucopyranoside], for which the concentration for half-maximal inhibition (IC50) in series [1] (Mus musculus, B16-F10, 24 h) is greater than 80 µM; in series [2], 0.71 ± 0.01 µM; in series [3] (Homo sapiens, A375P, 24 h), greater than 80 µM; in series [4] (Mus musculus, B16-F1, 24 h) it was greater than 80 µM.

In general, IC50 refers to the concentration that gives 50% inhibition.
